According to ChEMBL document CHEMBL1201862, “PubChem BioAssay data set” (2004):
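96-well plates; 48 h exposure; 5 concentrations. Endpoints by linear interpolation between flanking doses. Not reached: highest tested concentration assigned. GI50 = concentration required for 50% inhibition of growth.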 Activity calls are given as the source filed them. No stated cut-off is given here; in the data, active = GI50 up to about 1.1 µM and inactive = higher.

How the values were obtained:
Test in all cases: growth of human tumour cells (NCI), 48 h
KM12 = tested on: KM12
HL-60 = tested on: HL-60
M14 = tested on: M14
SK-OV-3 = tested on: SK-OV-3
HCC 2998 = tested on: HCC 2998
OVCAR-8 = tested on: OVCAR-8
HCT-116 = tested on: HCT-116
K562 = tested on: K562
KM-20L2 = tested on: KM-20L2
HOP-92 = tested on: HOP-92
NCI-H460 = tested on: NCI-H460
A549 = tested on: A549
IGROV-1 = tested on: IGROV-1
NCI-H23 = tested on: NCI-H23
CAKI-1 = tested on: CAKI-1
M19-MEL = tested on: M19-MEL
HCT-15 = tested on: HCT-15
T47D = tested on: T47D
Hs-578T = tested on: Hs-578T
MDA-N = tested on: MDA-N

| Structure (SMILES) | GI50 (KM12) | GI50 (HL-60) | GI50 (M14) | GI50 (SK-OV-3) | GI50 (HCC 2998) | GI50 (OVCAR-8) | GI50 (HCT-116) | GI50 (K562) | GI50 (KM-20L2) | GI50 (HOP-92) | GI50 (NCI-H460) | GI50 (A549) | GI50 (IGROV-1) | GI50 (NCI-H23) | GI50 (CAKI-1) | GI50 (M19-MEL) | GI50 (HCT-15) [µM] | GI50 (T47D) | GI50 (Hs-578T) | GI50 (MDA-N) |
| --- | --- | --- | --- | --- | --- | --- | --- | --- | --- | --- | --- | --- | --- | --- | --- | --- | --- | --- | --- | --- |
| C/C(CC(=O)Nc1ccc(C)c(C)c1)=N\NC(N)=S | > 100 µM (inactive) | > 100 µM (inactive) | > 100 µM (inactive) | > 100 µM (inactive) | > 100 µM (inactive) | > 100 µM (inactive) | > 100 µM (inactive) | > 100 µM (inactive) | > 100 µM (inactive) | > 100 µM (inactive) | > 100 µM (inactive) | > 100 µM (inactive) | > 100 µM (inactive) | > 100 µM (inactive) | – | – | – | – | – | – |
| C=C(C(=C)N1N=NC2C3CCC(C3)C21)N1N=NC2C3CCC(C3)C21 (centres undefined) | > 100 µM (inactive) | 16.9 µM (inactive) | > 100 µM (inactive) | – | > 100 µM (inactive) | > 100 µM (inactive) | > 100 µM (inactive) | 65.2 µM (inactive) | – | > 100 µM (inactive) | > 100 µM (inactive) | > 100 µM (inactive) | > 100 µM (inactive) | > 100 µM (inactive) | > 100 µM (inactive) | > 100 µM (inactive) | – | – | – | – |
| O=C1/C(=C/c2ccccc2)CN(C(=O)OCC(Cl)(Cl)Cl)C/C1=C\c1ccccc1 | 1.69 µM (inactive) | 0.897 µM (active) | 2.14 µM (inactive) | 7.48 µM (inactive) | – | 1.76 µM (inactive) | 1.33 µM (inactive) | 1.32 µM (inactive) | 2.44 µM (inactive) | – | 2.1 µM (inactive) | 5.02 µM (inactive) | 3.54 µM (inactive) | 2.25 µM (inactive) | – | 1.39 µM (inactive) | 1.95 | – | – | – |
| CCOc1ccc(NC(=O)CC2SC(Nc3ccc(C)cc3)=NC2=O)cc1 (centres undefined) | > 100 µM (inactive) | – | > 100 µM (inactive) | > 100 µM (inactive) | – | > 100 µM (inactive) | > 100 µM (inactive) | – | > 100 µM (inactive) | – | > 100 µM (inactive) | > 100 µM (inactive) | > 100 µM (inactive) | > 100 µM (inactive) | – | > 100 µM (inactive) | > 100 | – | – | – |
| S=C(/N=c1\sc(NCc2ccccc2)nc2sc3c(c12)CCN(N1CCc2c(sc4nc(NCc5ccccc5)s/c(=N\C(=S)NCc5ccccc5)c24)C1)C3)NCc1ccccc1 | 38 µM (inactive) | 25.4 µM (inactive) | 42.9 µM (inactive) | 53.2 µM (inactive) | 44.7 µM (inactive) | 20.9 µM (inactive) | 7.74 µM (inactive) | 17.4 µM (inactive) | – | 39.4 µM (inactive) | 54.8 µM (inactive) | 27.4 µM (inactive) | 28 µM (inactive) | 24.6 µM (inactive) | 21.9 µM (inactive) | – | 22.3 | 21.2 µM (inactive) | 54.3 µM (inactive) | 42.5 µM (inactive) |
| C[C@]12CC[C@@H]3c4ccc(O)cc4CC[C@H]3[C@@H]1CC[C@@H]2OC(=O)CCc1ccccc1 | 27.7 µM (inactive) | 20.1 µM (inactive) | 17.6 µM (inactive) | 15.5 µM (inactive) | 19.6 µM (inactive) | 22.8 µM (inactive) | 20.3 µM (inactive) | 11 µM (inactive) | – | 19.1 µM (inactive) | 19.1 µM (inactive) | 22.3 µM (inactive) | 20.8 µM (inactive) | 17.7 µM (inactive) | 18.4 µM (inactive) | – | 14.4 | 17.7 µM (inactive) | 5.14 µM (inactive) | 7.46 µM (inactive) |
| CC(=O)OCC1(C)C(O)CCC2(C)C1CCC1CC3CC12CCC3(O)CO (centres undefined) | > 100 µM (inactive) | 6.35 µM (inactive) | > 100 µM (inactive) | > 100 µM (inactive) | 20.8 µM (inactive) | 44.1 µM (inactive) | 76 µM (inactive) | > 100 µM (inactive) | – | > 81.5 µM (inactive) | 6.75 µM (inactive) | 55.1 µM (inactive) | > 47 µM (inactive) | 58.7 µM (inactive) | 17.9 µM (inactive) | – | > 100 | > 100 µM (inactive) | > 53.6 µM (inactive) | > 100 µM (inactive) |
| C[N+](C)(C)CCN[N+]1(C)CCCc2ccccc21 (centres undefined) | > 100 µM (inactive) | 0.67 µM (active) | > 100 µM (inactive) | > 100 µM (inactive) | > 100 µM (inactive) | > 100 µM (inactive) | 52 µM (inactive) | 39 µM (inactive) | – | > 100 µM (inactive) | > 100 µM (inactive) | > 100 µM (inactive) | > 100 µM (inactive) | > 100 µM (inactive) | > 100 µM (inactive) | – | > 100 | 36.5 µM (inactive) | > 100 µM (inactive) | > 100 µM (inactive) |
| CCOC(=O)C(C(=O)c1ccccc1C(=O)OC)=P(c1ccccc1)(c1ccccc1)c1ccccc1 | > 10 µM (inactive) | > 10 µM (inactive) | > 10 µM (inactive) | > 10 µM (inactive) | > 10 µM (inactive) | > 10 µM (inactive) | > 10 µM (inactive) | > 10 µM (inactive) | – | > 10 µM (inactive) | > 10 µM (inactive) | > 10 µM (inactive) | > 10 µM (inactive) | > 10 µM (inactive) | > 10 µM (inactive) | – | > 10 | > 10 µM (inactive) | > 10 µM (inactive) | > 10 µM (inactive) |
